What was measured:
[1] = tested on: ERK1/2, JNK1/2, p38 in RAW 264.7 macrophages; experiment: MAPK phosphorylation (Western blotting) in LPS-activated macrophages; assay type: cell-based, murine; conditions: Citral 10 μg/ml; LPS 1 μg/ml 0-60 min; p<0.05
Excerpt: RAW-Blue™ cells (Murine macrophages RAW264.7 stably transfected with the NF-κB reporter gene) purchased from InvivoGen (San Diego, Calif.). LPS (from Escherichia coli 0111:B4) and mouse antibodies against phospho-ERK1/2, phospho-JNK1/2, and phospho-p38 (all from Sigma, St. Louis, Mo.). Rabbit antibodies against mouse ERK1, JNK1, and p38, and HRP-labeled second antibodies were purchased from Santa Cruz Biotechnology, and IL-1β, IL-6, and TNF-α ELISA kits from R&D Systems. ROS production assay, NO production assay, NF-κB reporter assay, ELISA, and Western blotting were performed as described previously.

[2] = tested on: ROS and NO; experiment: Mouse FSGS model: superoxide anion (ROS), DHE and NO in renal tissue, serum, urine; assay type: in vivo; conditions: days 14 and 28
Method: A progressive type of mouse FSGS model was used, particularly characterized by EPHLs, a key histopathology index of progression of FSGS, peri-glomerular inflammation, and progressive glomerular hyalinosis/sclerosis. The FSGS model was induced in 8-week-old male BALB/c mice (National Laboratory Animal Center, Taipei, Taiwan) by intravenous injection of a single dose of adriamycin (0.10 mg/10 g body weight) (Pfizer, New York, N.Y.) as described previously. […] Age- and sex-matched BALB/c mice were used as normal controls. Urine samples were collected in metabolic cages on days 3, 7, 14, 21, and 28. Renal cortical tissues and blood samples were collected when the mice were sacrificed and stored appropriately for further analysis. The concentration of urine protein was determined using BCA kits (Pierce, Rockford, Ill.) as described previously and normalized to urine creatinine (Cr) levels measured using kits (Wako Pure Chemical Industries, Osaka, Japan), as described previously. Serum levels of blood urea nitrogen (BUN) and Cr were determined using BUN kits and Cr kits (both from Fuji Dry-Chem Slide, Fuji Film Medical, Tokyo, Japan), as described previously. Superoxide anion levels in serum, urine, and kidney tissues were determined as described previously. The results were expressed as relative luminescence units (RLU) per 15 min per milliliter (i.e., RLU/15 min/ml) for serum and urine samples or per milligram dry weight (i.e., RLU/15 min/mg dry weight) for kidney tissues. In addition, renal superoxide anion levels were measured by dihydroethidium (DHE) binding, fluorescence being quantified by counting the percentage of the total nuclei that were positive per kidney cross section as described previously. NO levels in serum and urine were measured using NO detection kits (Abeam, Cambridge, Mass.) according to the manufacturer's instructions.

[3] = Adverse side effects in animals; conditions: in vivo
[4] = tested on: renal apoptosis; caspase-3, caspase-8, caspase-9, Bax/Bcl-2; experiment: Mouse FSGS model: renal apoptosis (TUNEL), caspases, Bax/Bcl-2 ratio; assay type: in vivo
Method: A progressive type of mouse FSGS model was used, particularly characterized by EPHLs, a key histopathology index of progression of FSGS, peri-glomerular inflammation, and progressive glomerular hyalinosis/sclerosis. The FSGS model was induced in 8-week-old male BALB/c mice (National Laboratory Animal Center, Taipei, Taiwan) by intravenous injection of a single dose of adriamycin (0.10 mg/10 g body weight) (Pfizer, New York, N.Y.) as described previously. […] Age- and sex-matched BALB/c mice were used as normal controls. Urine samples were collected in metabolic cages on days 3, 7, 14, 21, and 28. Renal cortical tissues and blood samples were collected when the mice were sacrificed and stored appropriately for further analysis. The concentration of urine protein was determined using BCA kits (Pierce, Rockford, Ill.) as described previously and normalized to urine creatinine (Cr) levels measured using kits (Wako Pure Chemical Industries, Osaka, Japan), as described previously. Serum levels of blood urea nitrogen (BUN) and Cr were determined using BUN kits and Cr kits (both from Fuji Dry-Chem Slide, Fuji Film Medical, Tokyo, Japan), as described previously.
Renal tissues were formalin-fixed, embedded in paraffin, and sections (4 μm) prepared and stained with hematoxylin and eosin (H&E) for renal histopathology as described previously or TUNEL stained for apoptosis as described previously. Renal pathology was examined and renal lesions scored as described previously. For EPHLs and sclerosis, at least 50 glomeruli in sections were examined for each mouse. To detect apoptosis in renal tissues, TUNEL staining was performed using an in situ apoptosis detection kit (Chemicon, Temecula, Calif.) according to the manufacturer's instructions. For immunohistochemistry, methyl Carnoy solution-fixed and paraffin-embedded renal sections were prepared and incubated with goat antibodies against mouse collagen IV (Col-IV) (Southern Biotech, AL) or rabbit antibodies against phosphorylated mouse NF-κB p65 (Cell Signaling Technology, MA), F4/80 (Serotec, Raleigh, N.C.), or CD3 (Serotec), then with horseradish-conjugated rabbit anti-goat IgG antibodies or swine anti-rabbit IgG antibodies (both from Dako, Carpinteria, Calif.). Quantitative image analysis software (Pax-it; Paxcam, VIIIa Park, Ill.) was used to score Col-IV staining and the number of phosphorylated NF-κB p65-, CD3-, F4/80-, or TUNEL-positive cells as described previously.
Cytoplasmic and nuclear proteins from renal tissues were prepared using a kit (Active Motif, Tokyo, Japan) according to the manufacturer's instructions and target proteins detected by immunoblotting using goat antibodies against mouse Nrf2 or p47^phox, (Santa Cruz Biotechnology, Santa Cruz, Calif.) or rabbit antibodies against mouse NQO1 (Abcam), caspase-3, caspase-8, or caspase-9 (all from Cell Signaling Technology, MA) or Bcl2 or Bax (both from Santa Cruz Biotechnology), then with horseradish-conjugated rabbit anti-goat IgG antibodies or goat-anti-rabbit IgG antibodies (both from Santa Cruz Biotechnology) as described previously. Anti-β-actin antibody (Santa Cruz Biotechnology) was used as internal controls for the nuclear and cytosolic target proteins, respectively. Renal HO-1 levels were measured using a commercial ELISA kit (R&D Systems, Minneapolis, Minn.) according to the manufacturer's instructions.

CC(C)=CCCC(C)=CC=O (racemic) [Citral, 3,7-dimethyl-2,6-octadienal]
LPS-induced phosphorylation of ERK1/2 [1]: significantly inhibited | LPS-induced phosphorylation of JNK1/2 [1]: significantly inhibited | renal DHE levels (in situ ROS) ([2]; p<0.01): suppressed | superoxide anion levels in renal tissues ([2]; vs FSGS+vehicle mice, p<0.01): markedly decreased | superoxide anion levels in serum ([2]; vs FSGS+vehicle mice, p<0.01): markedly decreased | superoxide anion levels in urine ([2]; vs FSGS+vehicle mice, p<0.01): markedly decreased | NO levels in serum ([2]; vs FSGS+vehicle, p<0.05): significantly reduced | NO levels in urine ([2]; vs FSGS+vehicle, p<0.05): significantly reduced | adverse side effects to animals [3]: no apparent adverse side effects | mature form (p18 fragment) of renal caspase-8 ([4]; FSGS+vehicle vs FSGS+Citral vs normal control mice, data not shown): no detectable difference | renal apoptosis (TUNEL) in the glomerulus ([4]; day 28, p<0.005): significantly inhibited | renal apoptosis (TUNEL) in the renal tubule ([4]; days 14 and 28): significantly inhibited | mature form (p17 fragment) of caspase-3, renal levels ([4]; days 14 and 28, p<0.01): significantly inhibited | mature form (p37 fragment) of caspase-9, renal levels ([4]; days 14 and 28, p<0.05): suppressed
